In PMC3907505, “The Mechanism of Intralipid®-Mediated Cardioprotection Complex IV Inhibition by the Active Metabolite, Palmitoylcarnitine, Generates Reactive Oxygen Species and Activates Reperfusion Injury Salvage Kinases” (PLoS ONE, 2014):
pIC50: −log10 of the molar value.

Biological target: T1, Complex IV (cytochrome c oxidase) (Rattus norvegicus, UniProt P00406+P05503)
T1 construct: gene Mt-co1; native complex in saponin-permeabilized left ventricular (apex) cardiac fibers; dimer of 13 subunits per monomer; with Cytochrome c oxidase subunit 3; Cytochrome c oxidase subunit 4 isoform 1, mitochondrial; Cytochrome c oxidase subunit 5A, mitochondrial; Cytochrome c oxidase subunit 5B, mitochondrial; Cytochrome c oxidase subunit 6A2, mitochondrial; Cytochrome c oxidase subunit 6B1; Cytochrome c oxidase subunit 6C; Cytochrome c oxidase subunit 7A1, mitochondrial; Cytochrome c oxidase subunit 7B, mitochondrial; Cytochrome c oxidase subunit 7C, mitochondrial; Cytochrome c oxidase subunit 8B, mitochondrial
Test: high-resolution respirometry (O2 consumption), permeabilized cardiac fibers
Format: biochemical
Settings: ascorbate 2 mM/TMPD 0.5 mM as complex IV substrates, pH 7.1, 30°C, 1 g/l BSA in medium
From the text: high-resolution respirometry (O2 consumption), permeabilized cardiac fibers on Complex IV (cytochrome c oxidase)

pIC50 (Hillslope −0.86)	pIC50 (Hillslope −1.58)	Compound
4.14		CCCCCCCCCCCCCCCC(=O)O[C@H](CC(=O)[O-])C[N+](C)(C)C [C16∶0c, Palmitoylcarnitine]
	4.18	CCCCC/C=C\C/C=C\CCCCCCCC(=O)O[C@H](CC(=O)[O-])C[N+](C)(C)C [C18∶2c, cis,cis-9,12-octadecadienoyl-L-carnitine]
